# Columns and labels:
# ALK(G1202R/L1196M) [1] = target: T1, ALK(G1202R/L1196M) (Homo sapiens, UniProt Q9UM73, G1202R/L1196M); test: In vitro kinase inhibitory activity assay, Experimental method 1 (ADP-Glo); type: biochemical; conditions: final ATP 50 µM, read-out: Kinase half maximal inhibitory concentration IC50 ALK^G1202R/L1196M
# T1 construct: purchased Carna
# Method: (§1) The kinase inhibitory activity assays of the compounds against ALK, ALK^L1196M, ALK^G1202R, ALK^G1202R/L1196M, ROS1, and TRKB were conducted at Wuhan Heyan Biotechnology Co., Ltd. or Hefei PreceDo Biotechnology Co., Ltd.
# (§2) Experimental materials: ALK Active, ALK(L1196M) Active, ALK(G1202R) Active, and ALK(G1202R/L1196M) Active were purchased from Carna; SRC Substrate was purchased from SignalChem; IGF1R tide was purchased from SignalChem; ADP-Glo Kinase Assay was purchased from Promega; Kinase assay buffer III was purchased from SignalChem; and Nivo multimode plate reader (PerkinElmer).
# (§3) Each concentration of the compounds was further diluted 20-fold using 1X kinase buffer to prepare compound working solutions containing 5% DMSO. 1 µL of each concentration gradient working solution was added to a microplate, with duplicate wells set for each concentration. 2 µL of ALK enzyme (15 ng per well) and 2 µL of a mixture of substrate and ATP (25 µM ATP, 0.5 µg/µL SRC Substrate) were added to the microplate. […] The reaction system was placed at 25°C for 1 hour. After the reaction, 5 µL of ADP-Glo reagent was added to each well and reacted at 25°C for another 40 minutes. After the reaction, 10 µL of kinase detection reagent was added to each well and reacted at 25°C for 30 minutes. Chemiluminescence was then measured using the PerkinElmer Nivo multimode plate reader with an integration time of 0.5 seconds.
# ALK (G1202R/L1196M) kinase inhibition assay method: The preparation method for the working solution of the test compound was the same as for the ALK kinase. […] The subsequent steps were the same as for ALK kinase.
# (§4) The IC50 value could then be derived by performing a curve fit using a four-parameter logistic model (obtained using the "log(inhibitor) vs. response -- Variable slope" mode in GraphPad Prism).
# ROS1 = ROS1 (Homo sapiens, UniProt P08922); test: as above; type: biochemical; conditions: read-out: Kinase half maximal inhibitory concentration IC50 ROS1
# Method: as §1, §2
# as §3, with “After the reaction, 10 µL of kinase detection reagent was added to each well and reacted at 25°C for 30 minutes.” left out, “seconds. […]” for “seconds.”
# TRKB [2] = target: T2, TRKB (Homo sapiens, UniProt Q16620); test: as above; type: biochemical; conditions: read-out: Kinase half maximal inhibitory concentration IC50 TRKB
# T2 construct: purchased Carna
# T2 sequence (Q16620 32-822): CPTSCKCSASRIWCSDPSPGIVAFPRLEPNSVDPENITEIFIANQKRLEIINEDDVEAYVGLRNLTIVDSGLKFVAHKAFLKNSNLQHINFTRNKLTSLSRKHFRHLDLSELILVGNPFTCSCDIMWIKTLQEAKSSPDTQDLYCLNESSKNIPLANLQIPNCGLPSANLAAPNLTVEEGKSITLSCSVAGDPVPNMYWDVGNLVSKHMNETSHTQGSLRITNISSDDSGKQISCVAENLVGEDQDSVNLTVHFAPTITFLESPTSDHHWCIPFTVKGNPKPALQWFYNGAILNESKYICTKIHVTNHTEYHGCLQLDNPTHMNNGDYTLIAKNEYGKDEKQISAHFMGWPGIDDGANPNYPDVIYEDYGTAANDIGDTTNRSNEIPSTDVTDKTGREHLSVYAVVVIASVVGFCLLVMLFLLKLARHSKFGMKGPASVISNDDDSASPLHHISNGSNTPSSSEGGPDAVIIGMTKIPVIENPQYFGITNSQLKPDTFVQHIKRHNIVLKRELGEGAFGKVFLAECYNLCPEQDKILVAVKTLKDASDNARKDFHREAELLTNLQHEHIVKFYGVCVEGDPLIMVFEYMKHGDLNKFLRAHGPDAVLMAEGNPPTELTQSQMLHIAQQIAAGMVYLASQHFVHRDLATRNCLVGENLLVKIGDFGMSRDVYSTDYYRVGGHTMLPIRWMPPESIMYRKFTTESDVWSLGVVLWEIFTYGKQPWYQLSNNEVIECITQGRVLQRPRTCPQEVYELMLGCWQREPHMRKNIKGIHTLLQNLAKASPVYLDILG
# Method: as §1, §2, §3
# TRKB kinase inhibition assay method: The preparation method for the working solution of the test compound was the same as for the ALK kinase. 2 µL of TRKB (0.5 ng per well) and 4 µL of a mixture of substrate and ATP (5 µM ATP, 0.5 µM SRC Substrate) were added to the microplate. […] The subsequent steps were the same as for ALK kinase.
# as §4
# ALK(G1202R) = target: T3, ALK(G1202R) (Homo sapiens, UniProt Q9UM73, G1202R); test: as above; type: biochemical; conditions: final ATP 50 µM, read-out: Kinase half maximal inhibitory concentration IC50 ALK^G1202R
# T3 construct: purchased Carna
# T3 sequence (Q9UM73 19-1620 G1202R): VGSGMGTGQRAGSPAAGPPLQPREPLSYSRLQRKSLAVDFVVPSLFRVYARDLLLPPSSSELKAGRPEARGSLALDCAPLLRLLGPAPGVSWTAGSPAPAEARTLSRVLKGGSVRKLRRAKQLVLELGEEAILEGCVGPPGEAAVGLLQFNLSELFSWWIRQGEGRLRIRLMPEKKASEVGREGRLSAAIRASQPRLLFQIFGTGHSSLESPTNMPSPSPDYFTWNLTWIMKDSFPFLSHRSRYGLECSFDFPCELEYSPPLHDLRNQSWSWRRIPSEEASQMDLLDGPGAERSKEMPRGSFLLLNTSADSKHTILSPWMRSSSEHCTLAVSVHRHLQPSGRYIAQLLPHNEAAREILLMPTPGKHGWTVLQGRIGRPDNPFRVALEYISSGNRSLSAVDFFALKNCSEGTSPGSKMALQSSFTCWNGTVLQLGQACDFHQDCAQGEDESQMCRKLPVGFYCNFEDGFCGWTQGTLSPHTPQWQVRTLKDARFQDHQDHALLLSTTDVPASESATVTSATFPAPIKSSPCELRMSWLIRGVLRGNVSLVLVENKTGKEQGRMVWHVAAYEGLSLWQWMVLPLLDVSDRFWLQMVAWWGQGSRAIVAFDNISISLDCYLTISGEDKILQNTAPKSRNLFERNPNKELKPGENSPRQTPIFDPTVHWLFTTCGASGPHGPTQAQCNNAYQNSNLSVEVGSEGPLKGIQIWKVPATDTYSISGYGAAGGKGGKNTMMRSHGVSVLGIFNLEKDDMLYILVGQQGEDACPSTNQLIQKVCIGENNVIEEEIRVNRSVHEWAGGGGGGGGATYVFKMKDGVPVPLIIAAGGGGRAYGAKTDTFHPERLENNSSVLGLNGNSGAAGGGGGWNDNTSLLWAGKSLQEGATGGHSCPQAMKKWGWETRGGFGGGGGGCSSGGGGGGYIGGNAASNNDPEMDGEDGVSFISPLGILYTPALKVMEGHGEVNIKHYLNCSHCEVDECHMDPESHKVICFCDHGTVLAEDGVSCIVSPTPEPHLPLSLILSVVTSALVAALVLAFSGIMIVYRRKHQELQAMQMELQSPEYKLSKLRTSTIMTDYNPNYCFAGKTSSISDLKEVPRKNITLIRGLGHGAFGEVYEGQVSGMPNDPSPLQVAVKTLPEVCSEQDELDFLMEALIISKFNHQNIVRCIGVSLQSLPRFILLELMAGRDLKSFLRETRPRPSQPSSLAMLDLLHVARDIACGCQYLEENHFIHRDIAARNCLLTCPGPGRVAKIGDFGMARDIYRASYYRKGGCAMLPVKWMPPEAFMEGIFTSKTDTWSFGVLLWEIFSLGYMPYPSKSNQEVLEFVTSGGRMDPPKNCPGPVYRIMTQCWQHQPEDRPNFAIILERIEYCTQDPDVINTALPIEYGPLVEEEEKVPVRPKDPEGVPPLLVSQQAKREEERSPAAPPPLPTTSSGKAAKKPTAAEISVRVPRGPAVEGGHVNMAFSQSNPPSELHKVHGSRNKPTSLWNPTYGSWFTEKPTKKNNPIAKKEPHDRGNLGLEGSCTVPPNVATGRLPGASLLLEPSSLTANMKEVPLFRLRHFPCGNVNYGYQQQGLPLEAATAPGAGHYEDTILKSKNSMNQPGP
# Method: as §1, §2, §3
# ALK (G1202R) kinase inhibition assay method: The preparation method for the working solution of the test compound was the same as for the ALK kinase. […] The subsequent steps were the same as for ALK kinase.
# as §4
# ALK(G1202R/L1196M) [3] = target: T1, ALK(G1202R/L1196M); test: In vitro kinase inhibitory activity assay, Experimental method 2 (ADP-Glo); type: biochemical; conditions: Experimental method 2; ATP 5.0 µM, substrate IGF1; read-out: Kinase half maximal inhibitory concentration IC50 ALK^G1202R/L1196M
# Method: as §1
# (§5) Experimental materials: ALK (G1202R/L1196M) Active and TRKB were purchased from Carna; IGF1 was purchased from GenScript; PolyE4Y1 was purchased from SIGMA; ADP-Glo™ Reagent was purchased from Promega; ATP was purchased from Promega; Kinase Detection Reagent was purchased from Promega; microplate reader ( PerkinElmer).
# Reaction system: ALK(G1202R/L1196M) reaction concentration 8.63 nM, ATP concentration 5.0 µM, substrate IGF1 concentration 0.2 µg/µL. ALK(G1202R/L1196M) kinase buffer was 40 mM Tris-HCl (pH 7.5) + 20 mM magnesium chloride + 0.1 mg/mL BSA + 50 µM DTT.
# (§6) ALK(G1202R/L1196M) and TRKB detection method: 2 µL of kinase and 1 µL of compound were added to a 384-well plate; 2 µL of substrate/ATP mixture was added and incubated at room temperature in the dark for 60 minutes; 5 µL of ADP-Glo™ reagent was added and incubated at room temperature for 40 minutes; 10 µL of kinase detection reagent was added and incubated at room temperature for 30 minutes; the plate was read on a microplate reader, and luminescence was recorded (integration time set to 0.5 seconds).
# as §4
# [4] = In vivo pharmacokinetic testing in mice; parameters: species or system male CD-1 mice; conditions: mouse, IV, 0.5 mg/kg, plasma
# Method: The objective was to study the pharmacokinetic behavior of the compounds of the present disclosure in mice, using male CD-1 mice aged 7 to 9 weeks as test animals. The concentrations of the compounds in plasma at different time points after a single intravenous injection (IV) and oral gavage (PO) administration of the compound were determined using LC/MS/MS.
# Two groups of healthy mice (fasted) were administered the compounds via intravenous injection (IV) and oral gavage (PO), with 2 mice in each group.
# The test compounds were mixed with the solvent, vortexed, and sonicated to prepare a clear solution with a concentration of 0.5 mg/mL and a pH of 3.3-3.6. The intravenous injection dose for the mice was 1.0 mg/kg. […] The test compounds were mixed with the solvent, vortexed, and sonicated to prepare a homogeneous suspension with particles at a concentration of 0.5 mg/mL and a pH of 6.8-7.0. The oral gavage dose for the mice was 5.0 mg/kg.
# The test compound was mixed with the solvent, vortexed, and sonicated to prepare a clear solution with a concentration of 1.0 mg/mL. The intravenous injection dose for the mice was 1.0 mg/kg. […] The test compound was mixed with the solvent, vortexed, and sonicated to prepare a homogeneous suspension with particles at a concentration of 0.5 mg/mL. The oral gavage dose for the mice was 5.0 mg/kg.
# The test compounds were mixed with the solvent, vortexed, and sonicated to prepare a clear solution with a concentration of 0.1 mg/mL. The intravenous injection dose for the mice was 0.5 mg/kg. […] The test compound was mixed with the solvent, vortexed, and sonicated to prepare a homogeneous suspension with particles at a concentration of 0.5 mg/mL and a pH of 7.08. The oral gavage dose for the mice was 5.0 mg/kg. After administration, the whole blood was collected at the time points of 0.083 hours, 0.25 hours, 0.5 hours, 1.0 hour, 2.0 hours, 4.0 hours, 8.0 hours, 12.0 hours, and 24.0 hours. Plasma was prepared from the whole blood and analyzed for drug concentration by LC-MS/MS. The pharmacokinetic parameters were calculated using Phoenix WinNonlin 6.3.
# TRKB [5] = target: T2, TRKB; test: In vitro kinase inhibitory activity assay, Experimental method 2 (ADP-Glo); type: biochemical; conditions: Experimental method 2; ATP 5.0 µM, substrate PolyE4Y1; read-out: Kinase half maximal inhibitory concentration IC50 TRKB
# Method: as §1, §5
# TRKB reaction concentration 4.47 nM, ATP concentration 5.0 µM, substrate PolyE4Y1 concentration 0.2 µg/µL. TRKB kinase buffer was 40 mM Tris-HCl (pH 7.5) + 20 mM magnesium chloride + 2.5 mM manganese chloride + 0.1mg/mL BSA+ 50 µM DTT.
# as §6, §4
# Ba/F3-TEL-TRKB = test: Anti-proliferative activity test on Ba/F3 cell lines (CellTiter-Glo); type: cell-based; conditions: Mus musculus, BaF3; 72 hours; read-out: Half maximal inhibitory concentration IC50 for cells Ba/F3-TEL-TRKB
# Method: (§7) • (1) Cell culture: The cell lines were cultured in an incubator at 37°C with 5% CO2. Regular passaging was performed, and cells in the logarithmic growth phase were selected for plating; • (2) Preparation of compound storage plate: The test compounds were prepared into a 10 mM solution with DMSO (Stock Con.); The compounds were then prepared into a 1 mM solution with DMSO (Work Con.); 1 µL of the stock solution was mixed with 9 µL of DMSO to prepare a 10 µL work solution. • (3) Preparation of 1000× compound storage plate (tube): The compounds were 3-fold serially diluted from […] to the lowest concentration, for a total of 8 concentrations; • (4) Preparation of 20× compound working solution: 98 µL of cell culture medium was added to a flat-bottomed 96-well transparent drug plate. From the 1000× compound storage plate, 2 µL of the compound was pipetted into the cell culture medium in the 96-well transparent drug plate. In the solvent control, 2 µL of DMSO was added. After the compound or DMSO was added, the mixture was homogenized using a pipette. • (5) Cells were stained with trypan blue and viable cells were counted to ensure a cell viability of 90% or more. The cell concentration was adjusted to an appropriate concentration; • (6) 95 µL of cell suspension (2000 cells/well) was added to each well of the compound assay cell plate, and cell-free culture medium containing 0.1% DMSO was added to the Min control wells; • (7) Administration in the compound assay cell plate: 5 µL of 20× compound working solution was added to the cell culture plate, 5 µL of DMSO-cell culture medium mixture was added to the Max control wells, and the final concentration of DMSO was 0.1%; • (8) The culture plate was then incubated in an incubator at 37°C with 5% CO2 for 72 hours; • (9) The following operations were conducted in accordance with the instructions of the Promega CellTiter-Glo Luminescent Cell Viability Assay Kit (Promega-G7573): CellTiter-Glo buffer was thawed and brought to room temperature; CellTiter-Glo substrate was brought to room temperature; CellTiter-Glo buffer was added to a bottle of CellTiter-Glo substrate to dissolve the substrate, thereby preparing CellTiter-Glo working solution; The mixture was slowly vortexed and shaken to be fully dissolved; The cell culture plate was removed and allowed to equilibrate to room temperature for 10 minutes; 50 µL (equal to half the volume of cell culture medium in each well) of CellTiter-Glo working solution was added to each well; The culture plate was shaken on an orbital shaker for 2 minutes to induce cell lysis; The plate was then left at room temperature for 10 minutes to stabilize the luminescent signal; The luminescent signal was detected using a SpectraMax Paradigm plate reader; Cell viability assay was conducted using CellTiter-Glo luminescence method.
# (§8) Data analysis: The corresponding […] value (RLU) for each well was obtained from SpectraMax Paradigm readings. […] The inhibition rates corresponding to compounds at different concentrations were calculated in Excel, and the inhibition rate curves were plotted using GraphPad Prism software to calculate relevant parameters, including the maximum and minimum inhibition rates of the cells and the IC50 value.
# [6] = test system: Ba/F3-EML4-ALK-G1202R/L1196M; test: as above; type: cell-based; conditions: for IC50: Ba/F3 EML4-ALK-G1202R-L1196M, 72 hours, read-out: Half maximal inhibitory concentration IC50 for cells Ba/F3-EML4-ALK-G1202R/L1196 M
# Method: as §7, §8
# CYP3A4-M = target: T4, CYP3A4-M (Homo sapiens, UniProt P08684); test: Cytochrome P450 isozyme inhibitory activity test (human liver microsomes); type: in vitro ADME; conditions: human liver microsomes 0.1 mg/mL
# T4 construct: Mixed human liver microsomes (HLM) purchased from Corning Inc; tissue Corning Inc; host or cells: pooled human liver microsomes
# T4 sequence (P08684 whole entry): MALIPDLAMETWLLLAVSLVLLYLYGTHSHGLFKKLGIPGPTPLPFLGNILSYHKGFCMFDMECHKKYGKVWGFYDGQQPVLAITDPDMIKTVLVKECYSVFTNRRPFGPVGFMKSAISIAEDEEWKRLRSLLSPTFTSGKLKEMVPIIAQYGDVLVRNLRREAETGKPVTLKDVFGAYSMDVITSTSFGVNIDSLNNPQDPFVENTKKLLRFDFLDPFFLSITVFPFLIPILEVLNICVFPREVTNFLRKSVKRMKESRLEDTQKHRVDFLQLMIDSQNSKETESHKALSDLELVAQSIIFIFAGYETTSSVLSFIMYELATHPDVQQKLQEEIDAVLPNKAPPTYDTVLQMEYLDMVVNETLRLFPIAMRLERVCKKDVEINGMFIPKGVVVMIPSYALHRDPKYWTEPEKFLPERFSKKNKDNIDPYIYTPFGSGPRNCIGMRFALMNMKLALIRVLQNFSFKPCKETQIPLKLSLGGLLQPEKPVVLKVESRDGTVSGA
# CYP2C9 = target: T5, CYP2C9 (Homo sapiens, UniProt P11712); test: as above; type: in vitro ADME; conditions: human liver microsomes 0.1 mg/mL; probe substrate Diclofenac
# T5 construct: Mixed human liver microsomes (HLM) purchased from Corning Inc; tissue Corning Inc; host or cells: pooled human liver microsomes
# T5 sequence (P11712 whole entry): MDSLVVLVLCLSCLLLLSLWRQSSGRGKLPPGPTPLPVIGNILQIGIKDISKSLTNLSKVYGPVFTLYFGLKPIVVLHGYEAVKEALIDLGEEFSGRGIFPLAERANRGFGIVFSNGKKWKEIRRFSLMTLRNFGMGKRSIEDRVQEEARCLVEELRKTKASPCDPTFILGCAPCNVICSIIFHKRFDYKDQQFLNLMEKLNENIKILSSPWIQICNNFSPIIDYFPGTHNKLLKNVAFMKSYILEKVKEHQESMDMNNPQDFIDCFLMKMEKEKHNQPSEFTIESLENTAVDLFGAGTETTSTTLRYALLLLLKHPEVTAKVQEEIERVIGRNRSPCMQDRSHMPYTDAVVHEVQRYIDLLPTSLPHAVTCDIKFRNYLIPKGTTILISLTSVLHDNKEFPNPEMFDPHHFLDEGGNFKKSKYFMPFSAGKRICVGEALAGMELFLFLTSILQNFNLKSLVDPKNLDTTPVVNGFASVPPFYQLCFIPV
# Method: To test the inhibitory activity of the compounds of the present disclosure on different subtypes of human liver microsomal cytochrome P450 isozymes.
# Mixed human liver microsomes (HLM) purchased from Corning Inc. (Steuben, New York, USA); Diclofenac as the probe substrate (10 µM); Sulfaphenazole as the positive control inhibitor; 4'-Hydroxydiclofenac as the metabolite
# Preparation of test system working solution: Human liver microsomes (HLM): HLM stock solution at 20.0 mg/mL, working solution at 0.2 mg/mL, final concentration at 0.1 mg/mL; Potassium phosphate buffer: 100 mM; Cofactor working solution: Magnesium chloride, NADP (nicotinamide adenine dinucleotide phosphate), G6P (glucose-6-phosphate), G6PDH (glucose-6-phosphate dehydrogenase), and phosphate buffer or magnesium chloride, NADPH (reduced nicotinamide adenine dinucleotide phosphate) powder, and potassium phosphate buffer; prepared into cofactor working solution at appropriate ratios;
# Stop solution: Isotope-labeled 4'-hydroxydiclofenac-d4 stock solution prepared in methanol, then prepared into stop solution using acetonitrile.
# In the substrate-free control sample wells of the reaction plate, 100 µL of a mixture of human liver microsome and potassium phosphate buffer was added. At the zero-time point sample wells, 98 µL of a mixture of the human liver microsome and potassium phosphate buffer was added. In the no-inhibitor control (NIC), test compound, and positive control inhibitor sample wells of the reaction plate, 100 µL of a mixture of the human liver microsome and substrate was added. From the dilution plate, 2 µL of blank solvent, test compound working solution (three parallels), and positive control inhibitor working solution (two parallels) were added to the reaction plate. The reaction plate was preheated at 37.0°C for 10 minutes. […] The concentration of specific metabolites in the samples was detected using the liquid chromatography-tandem mass spectrometry (LC-MS/MS) method. […] The IC50 values were calculated using a three-parameter or four-parameter inverse log equation.
# T1 sequence (Q9UM73 19-1620 L1196M/G1202R): as the sequence (Q9UM73 19-1620 G1202R) above, with L1178M counted along it
Structure (SMILES),IC50 (ALK(G1202R/L1196M) [1]) [nM],IC50 (ROS1) [nM],IC50 (TRKB [2]) [nM],IC50 (ALK(G1202R)) [nM],IC50 (ALK(G1202R/L1196M) [3]) [nM],Vd ([4]; read-out: Apparent volume of distribution Vd) [L/kg],AUC(0-t) ([4]; read-out: Area under the curve AUC0-last) [µM·h],half-life ([4]; read-out: Half-life T1/2 (converted)) [h],IC50 (TRKB [5]) [nM],IC50 (Ba/F3-TEL-TRKB) [nM],IC50 [6] [nM],"selectivity: inhibition against ALK-mutant cells versus TRKB phenotypic cells ([6]; stronger inhibition of ALK-mutant cells, relatively weaker of TRKB phenotypic cells)",IC50 (CYP3A4-M) [nM],IC50 (CYP2C9) [nM]
CON=C1NC(C)(C)COc2ncc(F)cc2CN2c3nc4c1cnn4cc3OC[C@H]2C(F)F [Compound 005],5.2,0.6,1.2,3.8,–,–,–,–,–,–,–,–,–,–
C#Cc1nn2cc3c4nc2c1C(=O)NC(C)(C)COc1ccc(F)cc1CN4[C@H](C(F)F)CO3 [Compound 019],–,–,–,–,0.9,0.274,15.2,1.28,2.5,3.5,1.7,excellent selectivity,–,–
N#Cc1nn2cc3c4nc2c1C(=O)NC1(CCC1)COc1ccc(F)cc1CN4[C@H](C(F)F)CO3 [Compound 022],–,–,–,–,7.8,–,–,–,24.7,2.3,4.2,–,> 50000,460
N#Cc1nn2cc3c4nc2c1C(=O)N[C@H]1C[C@H](C1)Oc1ccc(F)cc1CN4[C@H](C(F)F)CO3 [Compound 024],–,–,–,–,2.3,–,–,–,5.3,0.8,1.6,–,> 50000,2120
